{"source": "patent US20110136876A1", "about": "“Altering Pharmacokinetics of Pirfenidone Therapy” (INTERMUNE, INC., priority 2007, published 2011)", "key": {"[1]": {"experiment": "Single dose study: pharmacokinetics of pirfenidone, fasted versus fed", "type": "in vivo", "conditions": "human, plasma, 801 mg; for half-life: oral, read-out: mean absorption half life (t1/2, abs) (converted)", "procedure": "(§1) A study was designed to evaluate the effect of food, antacids, and food taken with antacids on adverse events associated with pirfenidone use. The trial was conducted as a randomized, open-label, four-treatment crossover, with a single dose for each treatment period and a 2-day washout period between study treatments. 16 healthy adults between the ages of 50 and 79 years having body mass indices between 18 and 30 (inclusive) were enrolled and completed all 4 treatment arms. The treatment arms were as follows:\n(§2) A) pirfenidone alone (Fasted);\n(§3) B) pirfenidone within 1 minute following a dose of antacid (20 mL Mylanta® Maximum Strength Liquid) (Fasted+Antacid);\n(§4) C) pirfenidone 5 minutes after completing a standard meal (Fed); and\n(§5) D) pirfenidone 5 minutes after completing a standard meal, then within 1 minute, followed by a dose of antacid (Fed+Antacid).\n(§6) All subjects were admitted to the clinic for clinical evaluation the day prior to receiving the first dose of the study medication and remained confined for 13 days. Following an overnight fast of at least 10 hours (h), subjects were randomized to one of the above-described 4 treatment sequences. Each dose of pirfenidone (3×267 mg capsules) was administered orally with 240 mL room temperature water on days 1, 4, 7, and 10 in the morning, following an overnight fast of at least 10 hours. The washout period between treatments was 2 days. A standard meal consisted of 2 fried eggs, 2 strips of bacon, 2 slices of toast, 2 pats of butter, hash brown potatoes (4 oz), and whole milk (8 oz).\nOf 7 subjects who reported nausea, 5 of 16 (31%) were fasted compared to only 2 of 16 (13%) fed subjects. Of 5 subjects reporting dizziness, 4 of 16 (25%) were fasted, while only 1 of 16 (6%) was fed. Of 3 subjects reporting somnolence, 2 of 16 (13%) were fasted and 1 of 16 (6%) were fed. Of 3 subjects reporting headaches, 2 of 16 (13%) were fasted and 1 of 16 (6%) were fed."}, "[2]": {"experiment": "Single dose study: adverse events with food, antacid, or food plus antacid", "type": "in vivo, human", "conditions": "for dizziness incidence / nausea incidence / somnolence incidence / headache incidence: of 16 subjects", "procedure": "as §1, §2, §3, §4, §5, §6\nOn each study day, adverse events were reviewed with the patients as follows. Before administration of the first dose of the study drug, study site personnel noted the occurrence and nature of each subject's medical condition(s). During the trial, site personnel again noted any change in the condition(s) or occurrence and nature of any adverse events. The severity of adverse events were graded based on the Modified Common Toxicity Criteria and the relationship of the study drug to the adverse event determined."}, "[3]": {"experiment": "Multiple dose study: adverse events on multiple ascending daily doses taken with food", "type": "in vivo, human", "procedure": "A second study was designed to examine incidences of adverse events on multiple ascending daily doses of pirfenidone. The trial was conducted as an open-label, escalating-dose study with no washout period between dose escalations. 25 healthy adults between the ages of 45 and 79 (inclusive) having body mass indices between 18 and 30 (inclusive) were enrolled. 22 adults completed the treatment. Each volunteer received from 801 mg/day to 4005 mg/day of pirfenidone divided into three equal doses as follows:\nDays 1-2: 1 capsule three times a day (TID) (801 mg total daily dose (TDD))\nDay 3: 1 capsule in the morning (0800) (267 mg TDD)\nDays 4-5: 2 capsules TID (1602 mg TDD)\nDay 6: 2 capsules in the morning (534 mg TDD)\nDays 7-8: 3 capsules TID (2403 mg TDD)\nDay 9: 3 capsules in the morning (801 mg TDD)\nDay 12: 4 capsules in the morning (1068 mg TDD)\nDay 15: 5 capsules in the morning (1335 mg TDD)\nAll subjects were admitted to the clinic for clinical evaluation the day before the first dose of study medication and remained confined for 17 days. Each subject received all dose levels of the study drug unless adverse events or the clinical judgment of the trial physician precluded the continuation of treatment. All doses were taken with 240 mL room temperature water and with food (excluding grapefruit juice). TID doses times were ˜0800, ˜1200, and ˜1800."}, "[4]": {"conditions": "801 to 4005 mg/day TID with food, of 25 subjects"}}, "note": "Read-outs that look alike come from different tables or passages of the source.", "data": [{"smiles": "Cc1ccc(=O)n(-c2ccccc2)c1", "note": "[pirfenidone, 5-methyl-1-phenyl-2-(1H)-pyridone]", "values": [{"measurement": "half-life", "setting": "[1]; with food (fed)", "result": "~1.78", "unit": "h"}, {"measurement": "half-life", "setting": "[1]; without food (fasted)", "result": "~0.572", "unit": "h"}, {"measurement": "Cmax", "setting": "[1]; po, fasted (without food), single oral dose 3x267 mg capsules, healthy adults", "result": 15700, "unit": "ng/mL"}, {"measurement": "AUC", "setting": "[1]; po, fasted, single oral dose 3x267 mg capsules", "result": 72700, "unit": "ng·h/mL"}, {"measurement": "AUC", "setting": "[1]; po, fed, single oral dose 3x267 mg capsules", "result": 64600, "unit": "ng·h/mL"}, {"measurement": "dizziness incidence", "setting": "[2]; all treatment arms", "result": 38, "unit": "%"}, {"measurement": "nausea incidence", "setting": "[2]; all treatment arms", "result": 44, "unit": "%"}, {"measurement": "somnolence incidence", "setting": "[2]; all treatment arms", "result": 25, "unit": "%"}, {"measurement": "dizziness incidence", "setting": "[2]; fasted", "result": 25, "unit": "%"}, {"measurement": "headache incidence", "setting": "[2]; fasted", "result": 13, "unit": "%"}, {"measurement": "nausea incidence", "setting": "[2]; fasted", "result": 31, "unit": "%"}, {"measurement": "somnolence incidence", "setting": "[2]; fasted", "result": 13, "unit": "%"}, {"measurement": "dizziness incidence", "setting": "[2]; fed", "result": 6, "unit": "%"}, {"measurement": "headache incidence", "setting": "[2]; fed", "result": 6, "unit": "%"}, {"measurement": "nausea incidence", "setting": "[2]; fed", "result": 13, "unit": "%"}, {"measurement": "somnolence incidence", "setting": "[2]; fed", "result": 6, "unit": "%"}, {"measurement": "subjects with at least 1 adverse event", "setting": "[2]; in total, all treatment arms, 16 subjects", "result": 75, "unit": "%"}, {"measurement": "subjects with adverse events whose adverse events were mild", "setting": "[2]; of the 12 subjects with at least 1 adverse event", "result": 75, "unit": "%"}, {"measurement": "subjects who experienced an adverse event", "setting": "[2]; with food (Fed), 16 subjects", "result": 31.3, "unit": "%"}, {"measurement": "subjects who experienced an adverse event", "setting": "[2]; with food and antacid (Fed+Antacid), 16 subjects", "result": 25, "unit": "%"}, {"measurement": "subjects who experienced an adverse event", "setting": "[2]; within 1 minute following a dose of antacid (Fasted+Antacid), 16 subjects", "result": 56.3, "unit": "%"}, {"measurement": "subjects who experienced an adverse event", "setting": "[2]; without food (Fasted), 16 subjects", "result": 56.3, "unit": "%"}, {"measurement": "subjects with at least one adverse event", "setting": "[3]; 801 to 4005 mg/day TID with food, 25 subjects", "result": 92, "unit": "%"}, {"measurement": "headache incidence", "setting": "[3]; [4]", "result": 28, "unit": "%"}, {"measurement": "nausea incidence", "setting": "[3]; [4]", "result": 36, "unit": "%"}, {"measurement": "somnolence incidence", "setting": "[3]; [4]", "result": 32, "unit": "%"}, {"measurement": "subjects with adverse events whose adverse events were mild", "setting": "[3]; of the 23 subjects with at least one adverse event", "result": 96, "unit": "%"}]}]}
